# Laboratory results: publication PMC10226132, “First-in-Class Selective Inhibitors of the Lysine Acetyltransferase KAT8” (Journal of Medicinal Chemistry, 2023)
# How the values were obtained:
# U937 cells [1] = test system: U937 cells; parameters: method as in PMID 28202522; conditions: cited from earlier work
# KAT8 = target: T1, KAT8 (Homo sapiens, UniProt Q9H7Z6); test: Radioactive KAT8 inhibition assay; format: biochemical; conditions: read-out: IC50 KAT8 (5 nM); enzyme 5 nM; 2-fold serial dilution from 200 μM; NI = no inhibition at 200 μM; mean ± SD of three independent experiments
# T1 construct: using the previously purified KAT8 (173–458, 5 nM); 6xHis tag with TEV protease cleavage site (N, cleaved yes); made in house; host or cells: E. coli BL21(DE3)
# T1 sequence (Q9H7Z6 173-458): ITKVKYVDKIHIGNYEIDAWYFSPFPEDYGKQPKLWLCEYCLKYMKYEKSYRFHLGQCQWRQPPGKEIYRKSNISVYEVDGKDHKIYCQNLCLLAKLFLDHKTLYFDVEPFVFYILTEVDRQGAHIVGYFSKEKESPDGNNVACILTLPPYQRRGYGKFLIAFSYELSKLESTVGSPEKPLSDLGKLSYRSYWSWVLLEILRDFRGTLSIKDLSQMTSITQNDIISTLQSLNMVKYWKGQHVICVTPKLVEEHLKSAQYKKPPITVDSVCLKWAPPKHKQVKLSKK
# Procedure: Purified KAT8 was incubated with the relevant inhibitor (1% DMSO final) in a 2-fold serial dilution starting at 200 μM for 20 min at rt. Then, [^3H]Ac-CoA and biotinylated peptide were added to a total assay volume of 50 μL and the reaction mixture was incubated at rt for 4 h. The reaction was stopped, and the mixture was transferred to a 96-well streptavidin scintillant coated FlashPlate (Perkin Elmer) and incubated for 60 min at rt. The FlashPlate was washed with 0.1% Tween-20, and the liquid scintillation counting (MicroBeta Microplate Counter, Perkin Elmer) was employed to measure the radioactive signal. Experiments were performed in biological triplicates. Signal reduction compared to control was plotted (as inhibition percentage) as a function of compound concentration and fitted by nonlinear regression (GraphPad Prism 8.0) finally yielding the IC50 values.
# KAT3B = target: T2, KAT3B (Homo sapiens, UniProt Q09472); test: HotSpot KAT assay, KAT3B; format: biochemical; conditions: read-out: IC50 KAT3B (1 nM); enzyme 1 nM; NI = no inhibition at 200 μM; mean ± SD of three independent experiments
# T2 construct: KAT3B (aa 1284–1672, 1 nM); purchased Reaction Biology Corporation
# T2 sequence (Q09472 1284-1672): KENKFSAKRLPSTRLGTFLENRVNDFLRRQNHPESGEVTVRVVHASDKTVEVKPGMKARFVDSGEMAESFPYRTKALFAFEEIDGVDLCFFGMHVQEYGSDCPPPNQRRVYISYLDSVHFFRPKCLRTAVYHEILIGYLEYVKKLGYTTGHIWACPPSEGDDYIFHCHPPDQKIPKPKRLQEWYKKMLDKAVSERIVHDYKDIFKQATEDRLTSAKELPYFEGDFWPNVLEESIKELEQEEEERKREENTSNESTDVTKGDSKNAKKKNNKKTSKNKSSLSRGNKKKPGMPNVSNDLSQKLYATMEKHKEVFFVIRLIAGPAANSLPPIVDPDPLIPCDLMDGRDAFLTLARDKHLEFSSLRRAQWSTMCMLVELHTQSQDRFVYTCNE
# Procedure: The effects of the compounds on other KATs were determined using the HotSpot KAT assay (Reaction Biology Corporation, Malvern, PA, USA) according to the supplier’s procedure. […] Histone peptide acetylation was assessed by liquid scintillation counting using a Tri-Carb 2800TR Liquid Scintillation Analyzer (Perkin Elmer). Experiments were performed in biological triplicates. Signal reduction compared to control was plotted (as inhibition percentage) as a function of compound concentration. In cases in which an IC50 was calculated, the values were fitted by nonlinear regression (GraphPad Prism 8.0).
# KAT2B = target: T3, KAT2B (Homo sapiens, UniProt Q92831); test: HotSpot KAT assay, KAT2B; format: biochemical; conditions: enzyme 25 nM; NI = no inhibition at 200 μM; mean ± SD of three independent experiments
# T3 construct: KAT2B (aa 492–658, 25 nM); purchased Reaction Biology Corporation
# Procedure: The effects of the compounds on other KATs were determined using the HotSpot KAT assay (Reaction Biology Corporation, Malvern, PA, USA) according to the supplier’s procedure. The recombinant catalytic domains of human KAT2A (aa 323–837, 15 nM), KAT2B (aa 492–658, 25 nM), KAT3B (aa 1284–1672, 1 nM), KAT6A (aa 488–778, 10 nM), KAT6B (aa 657–1069, 10 nM), and full length human KAT5 (25 nM) and KAT7 (25 nM) were used. Each enzyme was incubated with the relevant histone peptide [H3 peptide for KAT2A, KAT2B, KAT3B, KAT6A, and KAT7 (2.5–5 μM, depending on the KAT isoform); H2A peptide for KAT5 (1.25 μM); H4 peptide for KAT6B (2.5 μM)] as a substrate and radio-isotope-labeled [^3H]Acetyl-CoA (0.2–1.5 μM, depending on the KAT isoform) as an acetyl donor in the assay buffer [50 mM Tris–HCl (pH 8.0), 50 mM NaCl, 0.1 mM EDTA, 1 mM DTT, 0.1 mM PMSF, 1% DMSO] for 1 h at 30 °C in the presence or absence of various compounds (1% DMSO final) titrated in a 2-fold serial dilution starting at 200 μM. Histone peptide acetylation was assessed by liquid scintillation counting using a Tri-Carb 2800TR Liquid Scintillation Analyzer (Perkin Elmer). Experiments were performed in biological triplicates. Signal reduction compared to control was plotted (as inhibition percentage) as a function of compound concentration. In cases in which an IC50 was calculated, the values were fitted by nonlinear regression (GraphPad Prism 8.0).
# A549 cells = test: MTT cell proliferation assay, A549; format: cell-based, human; conditions: 72 h treatment, MTT
# Source text: (§1) Human commercially available AML U937, breast cancer MCF7, lung adenocarcinoma NCI-H460, H1299 and A-549, glioblastoma U251, B lymphocyte AHH1 cell lines were maintained in compete 10% foetal bovine serum (FBS,) RPMI 1640 (Euroclone, Milan, IT) medium. Human commercially available colon cancer HCT116 and HT29 lines and cervix adenocarcinoma HeLa cells were maintained in compete 10% FBS Dulbecco’s Modified Eagle Medium (DMEM) high glucose medium (Euroclone). L-Glutamine, FBS, and penicillin streptomycin mixture added to medium were obtained from Euroclone. All cell lines were cultured at 37 °C in a humidified atmosphere of 5% CO2:95% air and were tested for mycoplasma contamination routinely by RT-PCR.
# (§2) For analysis of cell proliferation, cells were plated in sextuplicate on 96-well plates in complete media. After 24 h, cells were exposed to different drugs for 72 h. The inhibitory effect of different drugs was assessed by MTT (Sigma, St. Louis, MO, USA) colorimetric assays as previously reported.[67] Aqueous DMSO (0.5% v/v) was used as a control (untreated). The results are reported as “viability of drug-treated cells/viability of untreated cells” × 100 and represent the average ±SD of three independent experiments. IC50 values were using fitted by nonlinear regression using GraphPad Prism 8.0.
# [2] = test system: human intestinal epithelial cells (InEpC); test: Proliferation of human intestinal epithelial cells (InEpC); format: cell-based; conditions: 25, 50, 100, 200 μM, 72 h
# Procedure: as §2
# U937 cells [3] = test: MTT cell proliferation assay, U937; format: cell-based, human; conditions: 72 h treatment, MTT
# Source text: as §1, §2
# H1299 cells = test: MTT cell proliferation assay, H1299; format: cell-based, human; conditions: 72 h treatment, MTT
# Source text: as §1, §2
# HCT116 cells = test: MTT cell proliferation assay, HCT116; format: cell-based, human; conditions: 72 h treatment, MTT
# Source text: as §1, §2
# [4] = test system: normal human lung fibroblasts (NHLF); test: Proliferation of normal human lung fibroblasts (NHLF); format: cell-based; conditions: 25, 50, 100, 200 μM, 72 h
# Procedure: as §2
# AHH-1 cells = test: Proliferation of noncancer B lymphocyte AHH-1 cells; format: cell-based, human; conditions: 72 h
# Source text: as §1, §2
# T3 sequence (Q92831 492-658): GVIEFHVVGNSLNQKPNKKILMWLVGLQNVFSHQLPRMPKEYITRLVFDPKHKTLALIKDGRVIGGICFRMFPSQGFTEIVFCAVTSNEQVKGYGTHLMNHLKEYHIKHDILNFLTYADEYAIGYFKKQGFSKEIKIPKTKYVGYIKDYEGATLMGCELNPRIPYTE
IC50 (KAT8),IC50 (KAT3B),IC50 (KAT2B),"IC50 A549, 72 h (A549 cells)","IC50 U937, 72 h (U937 cells [3])","IC50 H1299, 72 h (H1299 cells)","IC50 HCT116, 72 h (HCT116 cells)",Compound,antiproliferative activity in U937 and other AML cell lines (U937 cells [1]),effect on proliferation of InEpC [2],effect on proliferation of NHLF [4],"effect on proliferation of AHH-1 cells (AHH-1 cells; 25, 50, 100, 200 μM)","IC50 (AHH-1 cells; Homo sapiens, AHH-1, NI = no inhibition at 200 µM)"
20.3 ± 1.3 µM,22.3 ± 1.1 µM,> 200 µM,–,–,–,–,"CCCCCCCc1ccc(CCc2cccc(O)c2C(=O)O)cc1 [III (MG149), reference compound]",exerted antiproliferative activity,–,–,–,–
> 200 µM,> 200 µM,> 200 µM,No inhibition at 100 µM,No inhibition at 100 µM,No inhibition at 100 µM,No inhibition at 100 µM,"CC1=NN(c2ccc(C(=O)NCc3ccccc3)cc2)C(=O)/C1=C\c1ccc[nH]1 [Compound 39, (Z)-4-(4-((1H-Pyrrol-2-yl)methylene)-3-methyl-5-oxo-4,5-dihydro-1H-pyrazol-1-yl)-N-benzylbenzamide]",–,did not significantly affect the proliferation,did not significantly affect the proliferation,did not significantly affect the proliferation,> 200 µM
